Like-named read-outs stand apart in the source and are kept apart here.
Key:
Assay type in all cases: cell-based
[1] = test system: Enterococcus faecalis (EFA); assay: MIC, two-fold agar dilution (CLSI), clinical isolates
Procedure, shortened: (§1)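 Test samples were assayed by the CLSI-recommended two-fold agar dilution method, and the minimum inhibitory concentration against each tested strain was determined.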

[2] = test system: Enterococcus faecium (EFM); assay: as above
Procedure, shortened: as §1

[3] = test system: Escherichia coli (including ESBLs, non-ESBLs); assay: as above; conditions: for Anti-bacterial activity (MIC), strain ECO+ 15-1: clinical isolate ECO+ 15-1; for Anti-bacterial activity (MIC), strain ECO+ 15-2: clinical isolate ECO+ 15-2; for Anti-bacterial activity (MIC), strain ECO+ 15-3: clinical isolate ECO+ 15-3; for Anti-bacterial activity (MIC), strain ECO+ 15-4: clinical isolate ECO+ 15-4; for Anti-bacterial activity (MIC), strain ECO− 15-1: clinical isolate ECO− 15-1; for Anti-bacterial activity (MIC), strain ECO− 15-2: clinical isolate ECO− 15-2; for Anti-bacterial activity (MIC), strain ECO− 15-3: clinical isolate ECO− 15-3; for Anti-bacterial activity (MIC), strain ECO− 15-4: clinical isolate ECO− 15-4
Procedure, shortened: as §1

[4] = test system: Moraxella catarrhalis (BCA); assay: as above
Procedure, shortened: as §1

[5] = test system: Streptococcus pneoumoniae (SPN); assay: as above
Procedure, shortened: as §1

[6] = test system: methicillin-resistant Staphylococcus aureus (MRSA); assay: as above; conditions: for Anti-bacterial activity (MIC), strain MRSA 15-1: clinical isolate MRSA 15-1; for Anti-bacterial activity (MIC), strain MRSA 15-2: clinical isolate MRSA 15-2; for Anti-bacterial activity (MIC), strain MRSA 15-3: clinical isolate MRSA 15-3; for Anti-bacterial activity (MIC), strain MRSA 15-4: clinical isolate MRSA 15-4
Procedure, shortened: as §1

[7] = test system: methicillin-resistant Staphylococcus epidermidis (MRSE); assay: as above; conditions: for Anti-bacterial activity (MIC), strain MRSE 15-1: clinical isolate MRSE 15-1; for Anti-bacterial activity (MIC), strain MRSE 15-2: clinical isolate MRSE 15-2; for Anti-bacterial activity (MIC), strain MRSE 15-3: clinical isolate MRSE 15-3; for Anti-bacterial activity (MIC), strain MRSE 15-7: clinical isolate MRSE 15-7
Procedure, shortened: as §1

[8] = test system: methicillin-sensitive Staphylococcus aureus (MSSA); assay: as above; conditions: for Anti-bacterial activity (MIC), strain MSSA 15-3: clinical isolate MSSA 15-3; for Anti-bacterial activity (MIC), strain MSSA 15-4: clinical isolate MSSA 15-4; for Anti-bacterial activity (MIC), strain MSSA 15-5: clinical isolate MSSA 15-5; for Anti-bacterial activity (MIC), strain MSSA 15-6: clinical isolate MSSA 15-6
Procedure, shortened: as §1

[9] = test system: methicillin-sensitive Staphylococcus epidermidis (MSSE); assay: as above; conditions: for Anti-bacterial activity (MIC), strain MSSE 15-3: clinical isolate MSSE 15-3; for Anti-bacterial activity (MIC), strain MSSE 15-4: clinical isolate MSSE 15-4; for Anti-bacterial activity (MIC), strain MSSE 15-5: clinical isolate MSSE 15-5; for Anti-bacterial activity (MIC), strain MSSE 15-6: clinical isolate MSSE 15-6
Procedure, shortened: as §1

[10] = test system: HCT-116 colorectal cancer cell line; assay: CCK-8 proliferation inhibition; conditions: 72 hours, CCK-8; for inhibition at 30 µM: HCT-116, 72 h
Procedure, shortened: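 Cells were plated overnight at 2000 cells/well, then compound in culture medium was added at a range of final concentrations. After 72 hours in a CO2 incubator, medium was replaced with 1:10 CCK-8 solution for the read-out.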

[11] = test system: A549 lung cancer cell line; assay: CCK-8 proliferation inhibition
Procedure, shortened: (§2)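 Plating at 2000 cells/well, then incubation overnight at 37° C. Next, a range of compound concentrations for 72 hours (control 1‰ DMSO). Finally, medium decanted and CCK-8 diluted 1:10 added.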

[12] = test system: BEL-7402 liver cancer cell line; assay: CCK-8 proliferation inhibition; conditions: for inhibition at 30 µM: Bel-7402, 72 h
Procedure, shortened: as §2

[13] = test system: MGC-803 gastric cancer cell line; assay: CCK-8 proliferation inhibition; conditions: for inhibition at 30 µM: MGC-803, 72 h
Procedure, shortened: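 Proliferation was measured with 1:10 diluted CCK-8 after a 72-hour incubation with the inhibitors at various final concentrations, using 1‰ DMSO as the control. Cells were plated at 2000 per well. Culture media contained 10% newborn bovine serum: 1640 for Jurkat and MGC-803, F12 for PC3, DMEM high glucose for MCF-7.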

[14] = Homo sapiens, concentration of 30 μM
[15] = concentration of 30 μM, 72 hours, 30 µM

## Cc1cc(NC(=O)[C@@H]2CC3(CC3)CN2C(=O)[C@@H](CC(=O)NO)CC2CCCC2)no1 [Example 71]
[1]; strain EFA 15-1
  Anti-bacterial activity (MIC): 2 µg/mL
[1]; strain EFA 15-2
  Anti-bacterial activity (MIC): 2 µg/mL
[1]; strain EFA 15-3
  Anti-bacterial activity (MIC): 0.5 µg/mL
[1]; strain EFA 15-4
  Anti-bacterial activity (MIC): 2 µg/mL
[1]; strain EFA 15-5
  Anti-bacterial activity (MIC): 2 µg/mL
[1]; strain EFA 15-6
  Anti-bacterial activity (MIC): 2 µg/mL
[1]; strain EFA 15-9
  Anti-bacterial activity (MIC): 1 µg/mL
[2]; strain EFM 15-1
  Anti-bacterial activity (MIC): 0.5 µg/mL
[2]; strain EFM 15-2
  Anti-bacterial activity (MIC): 2 µg/mL
[2]; strain EFM 15-3
  Anti-bacterial activity (MIC): 0.25 µg/mL
[2]; strain EFM 15-4
  Anti-bacterial activity (MIC): 2 µg/mL
[2]; strain EFM 15-5
  Anti-bacterial activity (MIC): 0.125 µg/mL
[2]; strain EFM 15-6
  Anti-bacterial activity (MIC): 0.5 µg/mL
[3]
  Anti-bacterial activity (MIC), strain ECO+ 15-1: 16 µg/mL
  Anti-bacterial activity (MIC), strain ECO+ 15-2: 16 µg/mL
  Anti-bacterial activity (MIC), strain ECO+ 15-3: 32 µg/mL
  Anti-bacterial activity (MIC), strain ECO+ 15-4: 32 µg/mL
  Anti-bacterial activity (MIC), strain ECO− 15-1: 16 µg/mL
  Anti-bacterial activity (MIC), strain ECO− 15-2: 16 µg/mL
  Anti-bacterial activity (MIC), strain ECO− 15-3: 16 µg/mL
  Anti-bacterial activity (MIC), strain ECO− 15-4: 32 µg/mL
[4]; strain BCA 14-1
  Anti-bacterial activity (MIC): 0.5 µg/mL
[4]; strain BCA 14-4
  Anti-bacterial activity (MIC): 0.5 µg/mL
[4]; strain BCA 14-5
  Anti-bacterial activity (MIC): 0.25 µg/mL
[4]; strain BCA 14-6
  Anti-bacterial activity (MIC): 0.5 µg/mL
[4]; strain BCA 14-7
  Anti-bacterial activity (MIC): 0.5 µg/mL
[4]; strain BCA 14-8
  Anti-bacterial activity (MIC): 0.25 µg/mL
[4]; strain BCA 14-10
  Anti-bacterial activity (MIC): 0.125 µg/mL
[5]; strain SPN 16-2
  Anti-bacterial activity (MIC): 2 µg/mL
[5]; strain SPN 16-4
  Anti-bacterial activity (MIC): 0.25 µg/mL
[6]
  Anti-bacterial activity (MIC), strain MRSA 15-1: 0.125 µg/mL
  Anti-bacterial activity (MIC), strain MRSA 15-2: 1 µg/mL
  Anti-bacterial activity (MIC), strain MRSA 15-3: 0.125 µg/mL
  Anti-bacterial activity (MIC), strain MRSA 15-4: 0.5 µg/mL
[7]
  Anti-bacterial activity (MIC), strain MRSE 15-1: 0.06 µg/mL
  Anti-bacterial activity (MIC), strain MRSE 15-2: 0.125 µg/mL
  Anti-bacterial activity (MIC), strain MRSE 15-3: 0.125 µg/mL
  Anti-bacterial activity (MIC), strain MRSE 15-7: 0.25 µg/mL
[8]
  Anti-bacterial activity (MIC), strain MSSA 15-3: 0.25 µg/mL
  Anti-bacterial activity (MIC), strain MSSA 15-4: 0.125 µg/mL
  Anti-bacterial activity (MIC), strain MSSA 15-5: 0.06 µg/mL
  Anti-bacterial activity (MIC), strain MSSA 15-6: 0.25 µg/mL
[9]
  Anti-bacterial activity (MIC), strain MSSE 15-3: 0.16 µg/mL
  Anti-bacterial activity (MIC), strain MSSE 15-4: 0.06 µg/mL
  Anti-bacterial activity (MIC), strain MSSE 15-5: 0.06 µg/mL
  Anti-bacterial activity (MIC), strain MSSE 15-6: 0.06 µg/mL
[10]; Homo sapiens, concentration of 30 μM, Table 5, read-out: Inhibition of proliferation, Colorectal cancer HCT116
  inhibition at 30 µM: ≥ 30%
[10]; Homo sapiens, concentration of 30 μM, read-out: HCT116 inhibition rate/%
  inhibition at 30 µM: 30%
[11]; Homo sapiens, A549, 72 h, concentration of 30 μM
  inhibition at 30 µM: 5%
[12]; [14]
  inhibition at 30 µM: 49%
[13]; [14]
  inhibition at 30 µM: 34%

## O=C(C[C@@H](CC1CCCC1)C(=O)N1CC2(CC2)C[C@@H]1c1nc2ccccc2[nH]1)NO [Example 76, (R)-4-((R)-6-(1H-benzimidazol-2-yl)-5-azaspiro[2.4]heptane-5-yl)-3-(cyclopentylmethyl)-N-hydroxy-4-oxobutanamide]
[1]; strain EFA 15-1
  Anti-bacterial activity (MIC): > 32 µg/mL
[1]; strain EFA 15-2
  Anti-bacterial activity (MIC): > 32 µg/mL
[1]; strain EFA 15-3
  Anti-bacterial activity (MIC): > 32 µg/mL
[1]; strain EFA 15-4
  Anti-bacterial activity (MIC): > 32 µg/mL
[1]; strain EFA 15-5
  Anti-bacterial activity (MIC): > 32 µg/mL
[1]; strain EFA 15-6
  Anti-bacterial activity (MIC): > 32 µg/mL
[1]; strain EFA 15-9
  Anti-bacterial activity (MIC): > 32 µg/mL
[2]; strain EFM 15-1
  Anti-bacterial activity (MIC): > 32 µg/mL
[2]; strain EFM 15-2
  Anti-bacterial activity (MIC): > 32 µg/mL
[2]; strain EFM 15-3
  Anti-bacterial activity (MIC): > 32 µg/mL
[2]; strain EFM 15-4
  Anti-bacterial activity (MIC): 16 µg/mL
[2]; strain EFM 15-5
  Anti-bacterial activity (MIC): 16 µg/mL
[2]; strain EFM 15-6
  Anti-bacterial activity (MIC): 32 µg/mL
[3]
  Anti-bacterial activity (MIC), strain ECO+ 15-1: > 32 µg/mL
  Anti-bacterial activity (MIC), strain ECO+ 15-2: > 32 µg/mL
  Anti-bacterial activity (MIC), strain ECO+ 15-3: > 32 µg/mL
  Anti-bacterial activity (MIC), strain ECO+ 15-4: > 32 µg/mL
  Anti-bacterial activity (MIC), strain ECO− 15-1: > 32 µg/mL
  Anti-bacterial activity (MIC), strain ECO− 15-2: > 32 µg/mL
  Anti-bacterial activity (MIC), strain ECO− 15-3: > 32 µg/mL
  Anti-bacterial activity (MIC), strain ECO− 15-4: > 32 µg/mL
[4]; strain BCA 14-1
  Anti-bacterial activity (MIC): 2 µg/mL
[4]; strain BCA 14-4
  Anti-bacterial activity (MIC): > 32 µg/mL
[4]; strain BCA 14-5
  Anti-bacterial activity (MIC): > 32 µg/mL
[4]; strain BCA 14-6
  Anti-bacterial activity (MIC): > 32 µg/mL
[4]; strain BCA 14-7
  Anti-bacterial activity (MIC): > 32 µg/mL
[4]; strain BCA 14-8
  Anti-bacterial activity (MIC): > 32 µg/mL
[4]; strain BCA 14-10
  Anti-bacterial activity (MIC): > 32 µg/mL
[5]; strain SPN 16-2
  Anti-bacterial activity (MIC): 8 µg/mL
[5]; strain SPN 16-4
  Anti-bacterial activity (MIC): 4 µg/mL
[6]
  Anti-bacterial activity (MIC), strain MRSA 15-1: > 32 µg/mL
  Anti-bacterial activity (MIC), strain MRSA 15-2: > 32 µg/mL
  Anti-bacterial activity (MIC), strain MRSA 15-3: > 32 µg/mL
  Anti-bacterial activity (MIC), strain MRSA 15-4: > 32 µg/mL
[7]
  Anti-bacterial activity (MIC), strain MRSE 15-1: > 32 µg/mL
  Anti-bacterial activity (MIC), strain MRSE 15-2: > 32 µg/mL
  Anti-bacterial activity (MIC), strain MRSE 15-3: > 32 µg/mL
  Anti-bacterial activity (MIC), strain MRSE 15-7: > 32 µg/mL
[8]
  Anti-bacterial activity (MIC), strain MSSA 15-3: > 32 µg/mL
  Anti-bacterial activity (MIC), strain MSSA 15-4: > 32 µg/mL
  Anti-bacterial activity (MIC), strain MSSA 15-5: > 32 µg/mL
  Anti-bacterial activity (MIC), strain MSSA 15-6: > 32 µg/mL
[9]
  Anti-bacterial activity (MIC), strain MSSE 15-3: > 32 µg/mL
  Anti-bacterial activity (MIC), strain MSSE 15-4: > 32 µg/mL
  Anti-bacterial activity (MIC), strain MSSE 15-5: > 32 µg/mL
  Anti-bacterial activity (MIC), strain MSSE 15-6: > 32 µg/mL
[10]; Homo sapiens, HCT-116
  IC50: 10.8 µM
[10]; concentration of 30 μM, 30 µM
  HCT116 inhibition rate/%: 87%
[11]; Homo sapiens, A549, 72 hours
  IC50: 9.29 µM
[11]; [15]
  Inhibition of proliferation, Lung cancer A549: 94%
[12]; [14]
  inhibition at 30 µM: > 50%
[12]; Homo sapiens, Bel-7402, 72 hours
  IC50: 8.58 µM
[12]; [15]
  Inhibition of proliferation, Liver cancer BEL-7402: 67%
[13]; [14]
  inhibition at 30 µM: > 50%
[13]; Homo sapiens, MGC-803, 72 hours
  IC50: 16.6 µM
[13]; [15]
  Inhibition of proliferation, Gastric cancer MGC-803: 64%

From patent US10738028B2, “Spiro three-membered ring, spiro five-membered ring peptide deformylase inhibitor and use thereof in antibacteria and anti-tumor” (priority 2016, dated 2020)
